In article PMC11868595, “Safety, pharmacokinetics and efficacy of HA121-28 in patients with advanced solid tumors and RET fusion-positive non-small-cell lung cancer: a multicenter, open-label, single-arm phase 1/2 trial” (Signal Transduction and Targeted Therapy, 2025):

Test system: patients with advanced solid tumors
Test: Phase 1 trial: adverse events (CTCAE), DLT and MTD
Assay type: in vivo, human
Protocol: The phase 1 trial was a two-part, multicenter, open-label, nonrandomized study to evaluate the safety and preliminary efficacy of HA121-28.
Safety, tolerability, and PK of HA121-28 was assessed in dose-escalation part. The single-patient accelerated titration was carried out at 25 mg and 50 mg; then, the dose escalation proceeded according to a “3 + 3” design in dose range of 100 to 800 mg. Escalation to a higher dose level was considered by the satisfactory review of safety results from the previous lower dose during the first cycle.
The dose-expansion part aims to further access the safety and efficacy of HA121-28 at the selected doses based on data from the dose-escalation part. The RP2D was determined by investigators in view of a thorough review of safety, PK, and efficacy results.
In phase 1 trial, during the dose-escalation part, patients first administered HA121-28 in a single ascending dose under the fasted state, then followed up for seven days. Then, patients received ascending doses of HA121-28 (q.d.) on a 21-day on and 7-day off treatment scheme for a 28-day cycle. For patients deemed beneficial from the treatment by investigators, treatment could remain until disease progression, or they discontinued from the study. In the dose-expansion part of phase 1, as well as phase 2, patients received HA121-28 (q.d.) at the selected doses on a 21-day on and 7-day off treatment scheme until disease progression, or they discontinued from the study.
Treatment-emergent adverse events (TEAEs) were documented during the entire study period. The predefined adverse event of special interest (AESI) was ≥ grade 3 prolonged QT interval. Tumor imaging was performed using contrast-enhanced computed tomography or magnetic resonance imaging at screening, Day 28 of the first cycle, then approximately every eight weeks till the end of the study for phase 1; in phase 2, imaging was scheduled at screening, and every eight weeks during the first 40 weeks, followed by every 12 weeks for the rest of the study period. RECIST 1.1 was used by the independent review committee or investigators for assessment of tumor response. After the original assessment, a repeated assessment was required around four weeks later to confirm a complete or partial response.
The primary endpoints of phase 1 were to investigate the MTD, dose-limiting toxicities, and the incidence and severity of TEAEs. Each TEAE was graded according to the Common Terminology Criteria for Adverse Events (CTCAE, version 5.0) and coded by Medical Dictionary for Regulatory Activities (MedDRA, version 21.0). The secondary endpoints included calculating PK parameters, assessing the ORR and DCR at the recommended dose by investigators as per RECIST 1.1. The exploratory endpoint was PFS.
If grade 2 or higher toxicity related to the study drug occurs in Groups 1 and 2 (as determined by the investigator), dose escalation will proceed using a 3+3 design starting from that dose level. If no DLT is observed at the 800 mg/d dose level after dose escalation, a meeting of investigators will be convened to decide whether to proceed with further dose escalation based on the available PK data, safety, and tolerability information.
5. Definition of DLT and MTD
The following events related to the study drug (including those that are definitely related, highly likely to be related, and possibly related):
(1) Grade 4 hematologic toxicity or grade 3 neutropenia accompanied by a fever of 38.5℃ or higher, or grade 3 thrombocytopenia accompanied by severe bleeding.
(2) Patients who discontinued the medication for more than 7 days due to unresolved toxicity reactions or who discontinued the medication more than twice due to toxicity […]
(3) In the context of supportive treatment, diarrhea of grade 2 lasting more than 7 days, or grade 3 diarrhea lasting more than 3 days.

COc1cc2c(Nc3ccc(Br)cc3F)ncnc2cc1OCCCCN(C)C.Cl.Cl [HA121-28, N-(4-bromo-2-fluorophenyl)-7-(4-(dimethylamino)butoxy)-6-methoxy quinazolin-4-amine dihydrochloride]
Serious TEAE: Acute pancreatitis (Phase 1, 450 mg (N=79)): 0 No. (%)
Serious TEAE: Anal abscess (Phase 1, 450 mg (N=79)): 0 No. (%)
Serious TEAE: Any (Phase 1, 450 mg (N=79)): 15 (19.0) No. (%)
Serious TEAE: Aortic intramural hematoma (Phase 1, 450 mg (N=79)): 0 No. (%)
Serious TEAE: Arrhythmia (Phase 1, 450 mg (N=79)): 1 (1.3) No. (%)
Serious TEAE: Blood bilirubin increased (Phase 1, 450 mg (N=79)): 0 No. (%)
Serious TEAE: Blood creatinine increased (Phase 1, 450 mg (N=79)): 0 No. (%)
Serious TEAE: COVID-19 (Phase 1, 450 mg (N=79)): 0 No. (%)
Serious TEAE: Cardiac tamponade (Phase 1, 450 mg (N=79)): 1 (1.3) No. (%)
Serious TEAE: Coronary artery atherosclerosis (Phase 1, 450 mg (N=79)): 0 No. (%)
Serious TEAE: Death (Phase 1, 450 mg (N=79)): 1 (1.3) No. (%)
Serious TEAE: Diarrhea (Phase 1, 450 mg (N=79)): 0 No. (%)
Serious TEAE: Drug eruption (Phase 1, 450 mg (N=79)): 0 No. (%)
Serious TEAE: Dyspnea (Phase 1, 450 mg (N=79)): 0 No. (%)
Serious TEAE: Embolism (Phase 1, 450 mg (N=79)): 0 No. (%)
Serious TEAE: Erythema multiforme (Phase 1, 450 mg (N=79)): 0 No. (%)
Serious TEAE: Headache (Phase 1, 450 mg (N=79)): 0 No. (%)
Serious TEAE: Hemoptysis (Phase 1, 450 mg (N=79)): 2 (2.5) No. (%)
Serious TEAE: Hydronephrosis (Phase 1, 450 mg (N=79)): 0 No. (%)
Serious TEAE: Hypertension (Phase 1, 450 mg (N=79)): 1 (1.3) No. (%)
Serious TEAE: Hypoalbuminemia (Phase 1, 450 mg (N=79)): 0 No. (%)
Serious TEAE: Intestinal obstruction (Phase 1, 450 mg (N=79)): 1 (1.3) No. (%)
Serious TEAE: Intra-abdominal fluid collection (Phase 1, 450 mg (N=79)): 0 No. (%)
Serious TEAE: Intracranial tumor hemorrhage (Phase 1, 450 mg (N=79)): 0 No. (%)
Serious TEAE: Liver injury (Phase 1, 450 mg (N=79)): 0 No. (%)
Serious TEAE: Lung adenocarcinoma (Phase 1, 450 mg (N=79)): 0 No. (%)
Serious TEAE: Malignant neoplasm progression (Phase 1, 450 mg (N=79)): 1 (1.3) No. (%)
Serious TEAE: Multiple organ dysfunction syndrome (Phase 1, 450 mg (N=79)): 1 (1.3) No. (%)
Serious TEAE: Nausea (Phase 1, 450 mg (N=79)): 0 No. (%)
Serious TEAE: Nephrolithiasis (Phase 1, 450 mg (N=79)): 0 No. (%)
Serious TEAE: Platelet counts decreased (Phase 1, 450 mg (N=79)): 0 No. (%)
Serious TEAE: Pleural effusion (Phase 1, 450 mg (N=79)): 1 (1.3) No. (%)
Serious TEAE: Pneumonia (Phase 1, 450 mg (N=79)): 0 No. (%)
Serious TEAE: Pneumonitis (Phase 1, 450 mg (N=79)): 1 (1.3) No. (%)
Serious TEAE: Prolonged QT interval (Phase 1, 450 mg (N=79)): 0 No. (%)
Serious TEAE: Pulmonary embolism (Phase 1, 450 mg (N=79)): 0 No. (%)
Serious TEAE: Pyrexia (Phase 1, 450 mg (N=79)): 0 No. (%)
Serious TEAE: Rash (Phase 1, 450 mg (N=79)): 1 (1.3) No. (%)
Serious TEAE: Rectal hemorrhage (Phase 1, 450 mg (N=79)): 1 (1.3) No. (%)
Serious TEAE: Respiratory failure (Phase 1, 450 mg (N=79)): 0 No. (%)
Serious TEAE: Seizure (Phase 1, 450 mg (N=79)): 2 (2.5) No. (%)
Serious TEAE: Septic shock (Phase 1, 450 mg (N=79)): 0 No. (%)
Serious TEAE: Sudden cardiac arrest (Phase 1, 450 mg (N=79)): 0 No. (%)
Serious TEAE: Sudden death (Phase 1, 450 mg (N=79)): 0 No. (%)
Serious TEAE: Upper respiratory tract infection (Phase 1, 450 mg (N=79)): 1 (1.3) No. (%)
Serious TEAE: Ventricular tachycardia (Phase 1, 450 mg (N=79)): 0 No. (%)
Serious TEAE: Vomiting (Phase 1, 450 mg (N=79)): 0 No. (%)
Serious TEAE: Weight loss (Phase 1, 450 mg (N=79)): 0 No. (%)
Serious TRAE: ALT increased (Phase 1, 450 mg (N=79)): 0 No. (%)
Serious TRAE: AST increased (Phase 1, 450 mg (N=79)): 0 No. (%)
Serious TRAE: Abdominal Pain (Phase 1, 450 mg (N=79)): 0 No. (%)
Serious TRAE: Abdominal distension (Phase 1, 450 mg (N=79)): 0 No. (%)
Serious TRAE: Acute cholecystitis (Phase 1, 450 mg (N=79)): 0 No. (%)
Serious TRAE: Acute pancreatitis (Phase 1, 450 mg (N=79)): 0 No. (%)
Serious TRAE: Anal abscess (Phase 1, 450 mg (N=79)): 0 No. (%)
Serious TRAE: Any (Phase 1, 450 mg (N=79)): 9 (11.4) No. (%)
Serious TRAE: Aortic intramural hematoma (Phase 1, 450 mg (N=79)): 0 No. (%)
Serious TRAE: Arrhythmia (Phase 1, 450 mg (N=79)): 1 (1.3) No. (%)
Serious TRAE: Blood bilirubin increased (Phase 1, 450 mg (N=79)): 0 No. (%)
Serious TRAE: Blood creatinine increased (Phase 1, 450 mg (N=79)): 0 No. (%)
Serious TRAE: COVID-19 (Phase 1, 450 mg (N=79)): 0 No. (%)
Serious TRAE: Cardiac tamponade (Phase 1, 450 mg (N=79)): 0 No. (%)
Serious TRAE: Coronary artery atherosclerosis (Phase 1, 450 mg (N=79)): 0 No. (%)
Serious TRAE: Death (Phase 1, 450 mg (N=79)): 0 No. (%)
Serious TRAE: Diarrhea (Phase 1, 450 mg (N=79)): 0 No. (%)
Serious TRAE: Drug eruption (Phase 1, 450 mg (N=79)): 0 No. (%)
Serious TRAE: Dyspnea (Phase 1, 450 mg (N=79)): 0 No. (%)
Serious TRAE: Embolism (Phase 1, 450 mg (N=79)): 0 No. (%)
Serious TRAE: Erythema multiforme (Phase 1, 450 mg (N=79)): 0 No. (%)
Serious TRAE: Headache (Phase 1, 450 mg (N=79)): 0 No. (%)
Serious TRAE: Hemoptysis (Phase 1, 450 mg (N=79)): 2 (2.5) No. (%)
Serious TRAE: Hydronephrosis (Phase 1, 450 mg (N=79)): 0 No. (%)
Serious TRAE: Hypertension (Phase 1, 450 mg (N=79)): 1 (1.3) No. (%)
Serious TRAE: Hypoalbuminemia (Phase 1, 450 mg (N=79)): 0 No. (%)
Serious TRAE: Intestinal obstruction (Phase 1, 450 mg (N=79)): 1 (1.3) No. (%)
Serious TRAE: Intra-abdominal fluid collection (Phase 1, 450 mg (N=79)): 0 No. (%)
Serious TRAE: Intracranial tumor hemorrhage (Phase 1, 450 mg (N=79)): 0 No. (%)
Serious TRAE: Liver injury (Phase 1, 450 mg (N=79)): 0 No. (%)
Serious TRAE: Lung adenocarcinoma (Phase 1, 450 mg (N=79)): 0 No. (%)
Serious TRAE: Malignant neoplasm progression (Phase 1, 450 mg (N=79)): 0 No. (%)
Serious TRAE: Multiple organ dysfunction syndrome (Phase 1, 450 mg (N=79)): 0 No. (%)
Serious TRAE: Nausea (Phase 1, 450 mg (N=79)): 0 No. (%)
Serious TRAE: Nephrolithiasis (Phase 1, 450 mg (N=79)): 0 No. (%)
Serious TRAE: Platelet counts decreased (Phase 1, 450 mg (N=79)): 0 No. (%)
Serious TRAE: Pleural effusion (Phase 1, 450 mg (N=79)): 0 No. (%)
Serious TRAE: Pneumonia (Phase 1, 450 mg (N=79)): 0 No. (%)
Serious TRAE: Pneumonitis (Phase 1, 450 mg (N=79)): 1 (1.3) No. (%)
Serious TRAE: Prolonged QT interval (Phase 1, 450 mg (N=79)): 0 No. (%)
Serious TRAE: Pulmonary embolism (Phase 1, 450 mg (N=79)): 0 No. (%)
Serious TRAE: Pyrexia (Phase 1, 450 mg (N=79)): 0 No. (%)
Serious TRAE: Rash (Phase 1, 450 mg (N=79)): 1 (1.3) No. (%)
Serious TRAE: Rectal hemorrhage (Phase 1, 450 mg (N=79)): 1 (1.3) No. (%)
Serious TRAE: Respiratory failure (Phase 1, 450 mg (N=79)): 0 No. (%)
Serious TRAE: Seizure (Phase 1, 450 mg (N=79)): 0 No. (%)
Serious TRAE: Septic shock (Phase 1, 450 mg (N=79)): 0 No. (%)
Serious TRAE: Sudden cardiac arrest (Phase 1, 450 mg (N=79)): 0 No. (%)
Serious TRAE: Sudden death (Phase 1, 450 mg (N=79)): 0 No. (%)
Serious TRAE: Upper respiratory tract infection (Phase 1, 450 mg (N=79)): 1 (1.3) No. (%)
Serious TRAE: Ventricular tachycardia (Phase 1, 450 mg (N=79)): 0 No. (%)
Serious TRAE: Vomiting (Phase 1, 450 mg (N=79)): 0 No. (%)
Serious TRAE: Weight loss (Phase 1, 450 mg (N=79)): 0 No. (%)
Serious TEAE: ALT increased (Phase 1, 600 mg (N=64)): 2 (3.1) No. (%)
Serious TEAE: AST increased (Phase 1, 600 mg (N=64)): 2 (3.1) No. (%)
Serious TEAE: Abdominal Pain (Phase 1, 600 mg (N=64)): 0 No. (%)
Serious TEAE: Abdominal distension (Phase 1, 600 mg (N=64)): 0 No. (%)
Serious TEAE: Acute cholecystitis (Phase 1, 600 mg (N=64)): 0 No. (%)
Serious TEAE: Acute pancreatitis (Phase 1, 600 mg (N=64)): 1 (1.6) No. (%)
Serious TEAE: Anal abscess (Phase 1, 600 mg (N=64)): 1 (1.6) No. (%)
Serious TEAE: Any (Phase 1, 600 mg (N=64)): 17 (26.6) No. (%)
Serious TEAE: Aortic intramural hematoma (Phase 1, 600 mg (N=64)): 0 No. (%)
Serious TEAE: Arrhythmia (Phase 1, 600 mg (N=64)): 0 No. (%)
Serious TEAE: Blood bilirubin increased (Phase 1, 600 mg (N=64)): 1 (1.6) No. (%)
Serious TEAE: Blood creatinine increased (Phase 1, 600 mg (N=64)): 1 (1.6) No. (%)
Serious TEAE: COVID-19 (Phase 1, 600 mg (N=64)): 0 No. (%)
